According to US20080306080A1, “NEUTROPHILIA INHIBITOR” (Nissan Chemical Industries, Ltd., priority 2003, published 2008):

Assays:
[1] = test system: neutrophilia in the rat airway; test: Effect on neutrophilia in the rat airway (LPS inhalation, neutrophil count in bronchoalveolar washings); type: in vivo, Wister rats; settings: oral 1 mg/kg, 3 mg/kg and 10 mg/kg, 30 min before LPS inhalation; washings about 5 hours after inhalation
Experimental: Male Wister rats weighing from 100 to 200 g were put in a clear plastic inhalation box for small animals (W30×H30×D30 cm), and 30 mL of a lipopolysaccharide solution (LPS E. coli 0.3 mg/mL saline) atomized to an average particle size of 2.0-6.0 μm was administered by inhalation from an ultrasonic nebulizer (TUR-3200, NIHON KOHDEN) for 30 minutes.
The lipopolisaccharide inhalation was preceded, 30 minutes in advance, by oral administration of Compound A suspended in 0.5% methylcellulose (MC) at doses of 1 mg/4 mL/kg, 3 mg/4 mL/kg and 10 mg/4 mL/kg, or by oral administration of 0.5% MC at a dose of 2 mL/kg to a solvent group. […]
About 5 hours after the lipopolisaccharide inhalation, bronchoalveolar washings were collected. […] The total number of leukocytes in the suspension was counted with a multichannel blood cell counter and designated as the total leukocyte count.
Further, after the cell suspension was adjusted to a total leukocyte count of 1×10^6 cells/mL, 100 μL of the suspension was centrifuged at room temperature at 400 rpm for 4 minutes in a cytocentrifuge (Thermo Shandon) and made into smears. The smears were stained with Diff-Quick (International Reagents Co., Ltd.), and monocytes, eosinophils and neutrophils were counted under an inverted microscope (×400) to about 500 cells. […]

[2] = test system: airway neutrophilia induced by exposure to tobacco smoke; test: Guinea pig respiratory dysfunction model with airway neutrophilia induced by exposure to tobacco smoke; type: in vivo, Hartley guinea pigs; settings: oral 10 mg/kg before each tobacco smoke exposure, 3 weeks, measured the day after
Experimental: Hartley guinea pigs weighing from 350 to 450 g were exposed to cigarette smoke for an hour per day, five days per week, for 3 weeks, by using a tobacco smoke exposer and an exposure chamber (Flow-pasttype nose-only inhalation chamber, Muenster).
The tobacco smoke exposure was preceded, 15-45 minutes in advance, by oral administration of the compound suspended in 0.5% methylcellulose (MC) at a dose of 10 mg/2 mL/kg or by oral administration of 0.5% MC at a dose of 2 mL/kg to a solvent group. To the non-treatment group, 0.5% MC was orally administered at a dose of 2 mL/kg, 15-45 minutes before air exposure. From 4 to 6 […] were carried out for each group. The airway resistances and neutrophil counts were measured the day after three weeks of the tobacco smoke exposure. The airway resistances were measured by double chamber plethysmography with a respiratory function tester (Puloms-1, M.I.P.S.) during wakefulness. The neutrophil counts were measured in the same manner as in Test Example 1. The effect of Compound A was evaluated by calculating the suppression ratio (%) in accordance with the following formula.
Suppression ratio=((measured value for the control group−measured value for the normal value)−(measured value for the Compound A group−measured value for the normal group))×100/(measured value for the control group−measured value for the normal value)

## Cl.O=c1[nH]nc(OCCCc2ccc(Cl)cc2)c(NCc2cccnc2)c1Br [Compound A, 4-bromo-6-[3-(4-chlorophenyl)propoxy]-5-(3-pyridylmethylamino)-3(2H)-pyridazinone hydrochloride]
[1]
  antineutrophilia effect in the rat airways (neutrophil counts in bronchoalveolar washings): had antineutrophilia effect
[2]; double chamber plethysmography
  suppression ratio of increase in airway resistance: 100%
[2]
  suppression ratio of neutrophilia (neutrophil count): 73%
